“And” between values parts separate entries of the source, which are not always exact repeats. Equal entries are not always repeated. Where two headings read alike, the source gives them in different places. Marks after values point to notes of the source that are not given here.

Experiment [1] has as its target T1, PTEN (Homo sapiens, UniProt P60484). Kind of experiment: PTEN Inhibition Assay: IC50 Determinations. Format: biochemical.
For experiment [2], the target named is T2, PTP1B (Homo sapiens, UniProt P18031).
T2 sequence (P18031 1-435): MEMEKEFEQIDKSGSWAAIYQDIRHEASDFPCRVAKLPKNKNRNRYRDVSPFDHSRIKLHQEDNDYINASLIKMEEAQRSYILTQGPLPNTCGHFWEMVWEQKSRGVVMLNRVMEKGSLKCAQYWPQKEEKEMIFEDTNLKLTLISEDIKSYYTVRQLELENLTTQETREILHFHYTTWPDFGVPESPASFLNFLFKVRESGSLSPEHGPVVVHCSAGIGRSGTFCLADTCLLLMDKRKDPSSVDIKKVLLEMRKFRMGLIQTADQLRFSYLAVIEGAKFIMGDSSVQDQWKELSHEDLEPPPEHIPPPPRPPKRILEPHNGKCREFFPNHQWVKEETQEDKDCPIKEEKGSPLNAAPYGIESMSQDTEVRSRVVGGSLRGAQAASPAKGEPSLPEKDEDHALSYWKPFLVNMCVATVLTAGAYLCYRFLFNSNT
The experiment is described as follows: PTP1B Inhibition Assay: IC50 Determinations. Type of experiment: biochemical.

For experiment [3], the target named is T1, PTEN. The experiment is described as follows: PTEN Inhibition Assay: General Screening. Type of experiment: biochemical.
In experiment [4] the test system is MEF PTEN null. The experiment is described as follows: Migration Assay, MEF PTEN null. Type of experiment: cell-based, mouse.
Experiment [5] relates to mouse aortic ring. Kind of experiment: In Vitro Aortic Ring Angiogenesis Assay. Format: cell-based. As to conditions: 120 h; for activity at 40 µM: 5 days.
Experiment [6] deals with MEF PTEN wt. The experiment is described as follows: Migration Assay, MEF PTEN wt. Format: cell-based, mouse.
The test system of experiment [7] is human prostate cancer cells (PC-3). Kind of experiment: MTT Assay for Determining Toxicity, PC-3. Type of experiment: cell-based. As to conditions: MTT, serum-free, 2 hours with compound, read-out: Viability IC50 PC-3.
Experiment [8] relates to human non-small cell lung cancer cells (H1299). Kind of experiment: MTT Assay for Determining Toxicity, H1299. Type of experiment: cell-based. As to conditions: NCI-H1299, MTT, serum-free, 2 hours with compound, read-out: Viability IC50 H1299.
For experiment [9], the system named is HBEC (Human Brain Endothelial Cells). The experiment is described as follows: Wound Healing Assay. Format: cell-based.
Experiment [10] has as its system human brain endothelial cells (HBEC). Kind of experiment: MTT Assay for Determining Toxicity, HBEC. Type of experiment: cell-based. As to conditions: Endothelial cell, MTT, serum-free, 2 hours with compound, read-out: Viability IC50 HBEC.
Setting [11] is: read-out: % Inhibition @ 250 uM.
Where [12] appears, read: 250 uM, Table 15 diamides, furazan core, read-out: % Inhibition @ 250 uM.
Where [13] appears, read: 250 uM, Table 27 isatins, read-out: % Inhibition @250 uM.
Where [14] appears, read: read-out: Branch (% of control).

T1 sequence (P60484 whole entry, species assumed): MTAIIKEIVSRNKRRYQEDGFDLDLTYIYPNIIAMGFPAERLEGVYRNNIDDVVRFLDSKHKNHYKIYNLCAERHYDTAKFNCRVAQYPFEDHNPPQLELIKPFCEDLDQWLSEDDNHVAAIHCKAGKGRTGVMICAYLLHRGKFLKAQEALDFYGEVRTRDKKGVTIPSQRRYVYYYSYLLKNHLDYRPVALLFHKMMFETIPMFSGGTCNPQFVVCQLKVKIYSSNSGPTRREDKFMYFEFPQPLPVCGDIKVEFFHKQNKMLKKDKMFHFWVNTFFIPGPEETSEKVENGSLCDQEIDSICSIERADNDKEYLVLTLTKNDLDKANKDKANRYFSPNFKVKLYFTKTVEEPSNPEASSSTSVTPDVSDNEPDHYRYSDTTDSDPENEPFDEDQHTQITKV

In general, IC50 refers to the concentration needed to halve the response being measured. In general, inhibition refers to the drop in the measured response relative to a control, in per cent. As for `O=C1C(=O)c2cc(NCc3ccccc3)ccc2-c2ccccc21` [SF1800-000], the IC50 in [1] is 862 nM; in experiment [2] it was under 10 µM. Also, in experiment [3] (setting [11]), the inhibition at 250 µM worked out at 98%.
In the case of `Cc1ccc(OCC(=O)Nc2ccc3c(c2)C(=O)C(=O)c2ccccc2-3)cc1` [SF1771-000], the values for the IC50 in [1] and in experiment [2] were 395 nM and 0.442 µM, respectively. In experiment [3] (setting [11]), the inhibition at 250 µM is 99.2%.
Turning to `Nc1ccc2c(c1)C(=O)C(=O)c1ccccc1-2` [SF1789-000], the IC50 in experiment [1] was 776 nM; in experiment [2], 2.97 µM. Further, the inhibition at 250 µM in experiment [3] (setting [11]) is 99%.
Turning to `Cc1ccc(C)c(OCC(=O)Nc2nonc2NC(=O)COc2cc(C)ccc2C)c1` [SF1609-000], the IC50 in [1] (Table 29, read-out: PTEN IC50) was 80000 to 113000 nM; in experiment [2] (Table 29, read-out: PTP1B IC50), 5.8 µM. Moreover, in [3] (setting [12]), the inhibition at 250 µM was 58 to 80%.
As for `CC(C)c1ccccc1OCC(=O)Nc1nonc1NC(=O)COc1ccccc1C(C)C` [SF1617-000], the IC50 in experiment [1] (Table 29, read-out: PTEN IC50) is 66000 to 84000 nM; in experiment [2] (Table 29, read-out: PTP1B IC50), 13.6 µM. Further, the inhibition at 250 µM in experiment [3] (setting [12]) is 3 to 81%.
For `O=C1Nc2ccc(Br)cc2C1=O` [SF1814-000], the IC50 in experiment [1] is 44900 nM; in [2], 10 to 100 µM. Also, the inhibition at 250 µM in experiment [3] (setting [13]) worked out at 97.6%.
In the case of `O=C1Nc2ccc(Br)cc2C1O` (stereo not drawn) [SF1818-000], the IC50 in experiment [1] (Table 29, read-out: PTEN IC50) is 31700 nM; in experiment [2] (Table 29, read-out: PTP1B IC50) it was under 10 µM. Also, the inhibition at 250 µM in experiment [3] (setting [13]) amounted to 97.8%.
Consider `O=C(COc1ccccc1)Nc1ccc2c(c1)C(=O)C(=O)N2` [SF1781-000], for which the IC50 in [1] (Table 29, read-out: PTEN IC50) is 18900 nM; in experiment [2] (Table 29, read-out: PTP1B IC50), 0.294 µM. For the same molecule, the inhibition at 250 µM in [3] (setting [13]) came to 97.8%.
As to `Cc1ccc(C(=O)Nc2ccc3c(c2)C(=O)C(=O)c2ccccc2-3)cc1` [SF1779-000], the “migration number, Average” value is 47.30 and 43.50 in experiment [4]; 20.60 and 18.00 in [6]. The activity at 5 µM in experiment [5] (setting [14]) lay in the range of 112 to 138%; in experiment [5] (read-out: Stem (% of control)), 92 to 125%. The IC50 in experiment [1] was 342 nM; in [2], 0.233 µM. In addition, the inhibition at 250 µM in experiment [3] (setting [11]) came out at 99.8%.
In the case of `O=C(COc1ccccc1[N+](=O)[O-])Nc1ccc2c(c1)C(=O)C(=O)c1ccccc1-2` [SF1796-000], the IC50 in [1] (Table 29, read-out: PTEN IC50) is 650 nM; in [2] (Table 29, read-out: PTP1B IC50), under 10 µM. Also, in [3] (setting [11]), the inhibition at 250 µM was 99%.
`COc1ccc(OCC(=O)Nc2ccc3c(c2)C(=O)C(=O)c2ccccc2-3)cc1` [SF1751-000]: the IC50 turned out to be 300 nM in experiment [1] (Table 29, read-out: PTEN IC50) and 3 µM in experiment [2] (Table 29, read-out: PTP1B IC50). Moreover, the inhibition at 250 µM in [3] (setting [11]) stood at 99.2%.
Turning to `CC(C)(C)c1ccc(S(=O)(=O)Nc2ccc3c(c2)C(=O)C(=O)c2ccccc2-3)cc1` [SF1780-000], the IC50 in experiment [1] (Table 29, read-out: PTEN IC50) came out at 269 nM; in [2] (Table 29, read-out: PTP1B IC50), 0.12 µM. Further, the inhibition at 250 µM in [3] (setting [11]) came out at 98%.
Turning to `CCN(N=O)c1ccc(O)c(O)c1` [SF1681-000, 3,4-Dephostatin, Ethyl-, reference compound], the IC50 in experiment [1] was found to be 50000 nM; in experiment [2] it was 50 µM. Besides, the inhibition at 250 µM in [3] (read-out: % Inhibition at 250 uM) came out at 82.4%.
Regarding `O=c1cc(N2CCOCC2)oc2c(-c3ccccc3)cccc12` [LY294002, reference compound], the activity at 40 µM in experiment [5] (setting [14]) fell in the range of 0 to 0.8%; in [5] (read-out: Stem (% of control)), 0 to 2%.
With `O=C1Nc2ccc([N+](=O)[O-])cc2C1=O` [SF1770-000, 5-nitroindoline-2,3-dione], the half-maximal inhibitory concentration (IC50) is over 1 mM in [7]; 695 µM in experiment [8]; 2200 nM in experiment [1] (Table 29, read-out: PTEN IC50); 16.3 µM in experiment [2] (Table 29, read-out: PTP1B IC50); over 1 mM in experiment [10]. Besides, the “migration number, Average” value in [4] (125 uM, Table 4) turned out to be 42.30; in [4] (250 uM, Table 4) it was 41.50; in [6] (125 uM, Table 4), 22.90; in experiment [6] (250 uM, Table 4), 22.40. For the same molecule, the “distance the cells have grown out” value in experiment [9] (10 nM, 2 hrs) is given as 0.02667* millimeters; in experiment [9] (10 nM, 4 hrs) it was 0.045* millimeters; in experiment [9] (10 nM, 6 hrs) it was 0.065* millimeters; in experiment [9] (10 nM, 24 hrs), 0.1483* millimeters; in experiment [9] (50 nM, 2 hrs) it was 0.05 millimeters; in experiment [9] (50 nM, 4 hrs) it was 0.06 millimeters. Besides, the “distance the cells have grown out” value in experiment [9] (50 nM, 6 hrs) is recorded as 0.075 millimeters; in experiment [9] (50 nM, 24 hrs) it was 0.2233* millimeters; in experiment [9] (250 nM, 2 hrs) it was 0.04 millimeters; in [9] (250 nM, 4 hrs), 0.05167 millimeters; in experiment [9] (250 nM, 6 hrs) it was 0.06667 millimeters; in [9] (250 nM, 24 hrs), 0.2017* millimeters. Moreover, the “distance the cells have grown out” value in experiment [9] (1000 nM, 2 hrs) was determined as 0.04 millimeters; in experiment [9] (1000 nM, 4 hrs), 0.06167 millimeters; in [9] (1000 nM, 6 hrs), 0.07667 millimeters; in [9] (1000 nM, 24 hrs), 0.2417 millimeters. Besides, in experiment [9] (relative to no treatment control), the “HBEC migration across the wound, in words” value was “migrate faster”. The inhibition at 250 µM in experiment [3] (setting [13]) is 99.4%.

For the origin of these results see US20070203098A1, “Pten Inhibitors” (priority 2004, published 2007).
